Test results as given in PMC10590383, “Repurposing conformational changes in ANL superfamily enzymes to rapidly generate biosensors for organic and amino acids” (Nature Communications, 2023).

Tests used:
[1] = molecular target: T1, GECFINDER-Phe2 (Aneurinibacillus migulanus, UniProt P0C061); experiment: Fluorescence dose-response of purified cpEGFP sensors (0.75 uM) in 100 mM Tris-HCl pH 7.5, room temperature, 1 mM ATP, 2.5 mM MgCl2; excitation 400, 460 or 480 nm by sensor, emission 510 nm; logistic five-parameter fit.; format: biochemical; conditions: n = 3
T1 construct: gene grsA; GrsA-PheA-PCP; cpEGFP inserted in hinge B, linkers CV-LL

[2] = molecular target: T2, GECFINDER-Phe3 (Aneurinibacillus migulanus, UniProt P0C061); experiment: as above; format: biochemical; conditions: n = 3
T2 construct: gene grsA; GrsA-PheA-PCP; cpEGFP inserted in hinge B, linkers VF-QS
T2 sequence (P0C061 1-617): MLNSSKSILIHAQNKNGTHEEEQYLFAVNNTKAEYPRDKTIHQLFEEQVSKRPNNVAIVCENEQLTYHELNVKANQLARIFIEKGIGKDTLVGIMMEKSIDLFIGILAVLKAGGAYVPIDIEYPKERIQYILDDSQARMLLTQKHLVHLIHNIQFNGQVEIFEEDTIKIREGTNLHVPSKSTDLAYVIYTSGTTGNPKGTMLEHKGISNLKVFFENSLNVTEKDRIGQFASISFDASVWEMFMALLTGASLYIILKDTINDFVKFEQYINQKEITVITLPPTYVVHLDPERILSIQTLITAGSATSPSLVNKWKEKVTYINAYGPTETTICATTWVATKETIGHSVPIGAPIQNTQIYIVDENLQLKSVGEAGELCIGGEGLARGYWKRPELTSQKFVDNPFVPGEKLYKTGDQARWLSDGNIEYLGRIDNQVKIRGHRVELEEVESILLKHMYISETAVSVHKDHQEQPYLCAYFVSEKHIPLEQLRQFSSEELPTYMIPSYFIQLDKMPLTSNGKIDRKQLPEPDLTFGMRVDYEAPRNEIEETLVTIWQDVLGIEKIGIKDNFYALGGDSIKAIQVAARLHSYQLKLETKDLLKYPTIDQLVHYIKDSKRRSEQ

## N[C@@H](Cc1ccccc1)C(=O)O [Phe, phenylalanine]
[1]
  EC50: 1.47 ± 0.15 µM
[2]
  EC50: 1.91 ± 0.08 µM
